# Laboratory results published in patent US7659299B2, “Compounds inhibiting the binding of sap for treating osteoarthritis” (Pentraxin Therapeutics Limited, priority 2003, dated 2010).
# Where “and” joins values, the source holds several entries; their conditions need not be identical. Equal entries are not always repeated.
# Assays:
# SAP [1] = target: T1, SAP (Homo sapiens, UniProt P02743); experiment: Inhibition of binding of 125I radiolabelled SAP to native long chromatin immobilized in microtitre plates; set-up: 5 μl of radiolabelled SAP in TN; from tissue; conditions: for Inhibition of binding of SAP to chromatin, in words: Table 2; for inhibition at 0.2 µM: compound 200 nM; for inhibition at 0.2 µM / inhibition at 2 µM / inhibition at 20 µM / inhibition at 200 µM / inhibition at 2000 µM: read-out: Percent inhibition of binding of radiolabelled SAP to immobilized native long chromatin; for inhibition at 2 µM: compound 2 μM; for inhibition at 20 µM: compound 20 μM; for inhibition at 200 µM: compound 200 μM
# SAP [2] = target: T1, SAP; experiment: Inhibition of binding of 125I radiolabelled SAP to influenza virus immobilized in microtitre plates; set-up: 5 μl of radiolabelled SAP in TN; from tissue; conditions: for inhibition at 20 µM: compound 20 μM; for inhibition at 20 µM / inhibition at 200 µM / inhibition at 0.2 µM / inhibition at 2 µM / inhibition at 2000 µM: read-out: Percent inhibition of binding of radiolabelled SAP to immobilized influenza virus; for inhibition at 200 µM: compound 200 μM; for Inhibition of binding of SAP to immobilised influenza virus, in words: summary of Table 3; for inhibition at 0.2 µM: compound 200 nM; for inhibition at 2 µM: compound 2 μM; for inhibition at 2000 µM: compound 2 mM
# Method: A concentrated suspension of purified influenza virus A/Shanghai/24/90 at 10 mg protein per ml in PBS was diluted 1:50 in PBS and then dispensed to polystyrene microtitre plates at 50 μl volumes per well, and left overnight at 4° C. All wells were then emptied before blocking by addition to each well of 200 μl of 2% w/v BSA in PBS and incubation at room temperature for 1 h. All wells were then washed three times with 200 μl volumes of PBS containing 0.05% v/v Tween 20, prior to equilibration for 2 min with 0.01M Tris buffered 0.14M NaCl/0.002M CaCl2 at pH 8.0 (TC buffer), containing 4% w/v BSA and 0.05% v/v Tween 20 (TCBT buffer). The wells were then emptied before adding to each one the following reagents. […] For background, non-specific, non calcium dependent, binding in the presence of EDTA: 5 μl radiolabelled SAP in TN and 45 μl 0.01M Tris buffered 0.14M NaCl at pH 8.0 containing 11.1 mM EDTA, 4.4% w/v BSA and 0.06% w/v Tween 20 (TEBT buffer) to provide final concentrations of EDTA, 10 mM; BSA, 4%; Tween 20, 0.05%. […] All wells were then incubated at room temperature for 2 h before being washed three times with 200 μl volumes of TCBT, allowed to dry for 1 h at room temperature, and bound radiolabelled SAP was then counted. The compounds tested in the experiment shown here were the same as those specified in Example B above.
# The capacity of the compounds tested to inhibit binding of SAP to the immobilised influenza virus is expressed as the percentage by which SAP binding was reduced compared to binding in the absence of any inhibitor (Table 3).
# SAP [3] = target: T1, SAP; experiment: Isothermal calorimetry: dissociation constants between SAP and compounds; type: binding; conditions: for Kd: replicate measurements, read-out: Kd in micromoles per liter (replicate measurements)
# Excerpt: Surface plasmon resonance (SPR) is a low throughput but powerfully informative method to identify compounds that are bound by, or themselves bind to SAP, either in a calcium dependent fashion or independently of calcium, for the purposes of the present invention. For example, low molecular weight compounds that inhibit binding of SAP to its macromolecular ligands, including target ligands relevant to the present invention, can be detected by their effect on the signal generated by fluid phase SAP binding to ligand immobilised on the solid phase (Example A). Furthermore, when SAP itself is immobilised on the solid phase in an SPR instrument, the interaction with it of test molecules provided in the fluid phase generates a signal that can be detected and quantified. Purified SAP immobilized within an SPR instrument gives a quantifiable signal when it is exposed to another molecule that forms a complex with the SAP, and this is distinct from the absence of such a signal if no complex is formed. […] Another low throughput but powerful direct method is isothermal calorimetry that measures the heat of interaction in solution between SAP and test compounds according to the present invention. The binding affinity can be measured precisely as a guide to potential efficacy. Typical results by this method for the dissociation constants, Kd, between SAP and various compounds are as follows: […]
# SAP [4] = target: T1, SAP; experiment: Inhibition of binding of 125I radiolabelled SAP to Neisseria meningitidis immobilized in microtitre plates; set-up: 5 μl of radiolabelled SAP in TN; from tissue; conditions: for inhibition at 20 µM: compound 20 μM; for inhibition at 20 µM / inhibition at 2000 µM / inhibition at 0.2 µM / inhibition at 2 µM / inhibition at 200 µM: read-out: Percent inhibition of binding of radiolabelled SAP to immobilized Neisseria meningitidis; for inhibition at 2000 µM: compound 2 mM; for Inhibition of binding of SAP to meningococci, in words: summary of Table 1; for inhibition at 0.2 µM: compound 200 nM; for inhibition at 2 µM: compound 2 μM; for inhibition at 200 µM: compound 200 μM
# Method: A suspension of heat killed Neisseria meningitidis at 1×10^8 organisms per ml in PBS was dispensed to polystyrene microtitre plates at 50 μl volumes per well, and left overnight at 4° C. All wells were then washed three times with 200 μl volumes of PBS containing 0.05% v/v Tween 20, prior to equilibration for 2 min with 0.01M Tris buffered 0.14M NaCl/0.002M CaCl2 at pH 8.0 (TC buffer), containing 4% w/v BSA and 0.05%/v Tween 20 (TCBT buffer). The wells were then emptied before adding to each one the following reagents. […] For background, non-specific, non calcium dependent, binding in the presence of EDTA: 5 μl radiolabelled SAP in TN and 45 μl 0.01M Tris buffered 0.14M NaCl at pH 8.0 containing 11.1 mM EDTA, 4.4% w/v BSA and 0.06% w/v Tween 20 (TEBT buffer) to provide final concentrations of EDTA, 10 mM; BSA, 4%; Tween 20, 0.05%. […] All wells were then incubated at room temperature for 2 h before being washed three times with 200 μl volumes of TCBT, allowed to dry for 1 h at room temperature, and bound radiolabelled SAP was then counted.
# The capacity of the compounds tested to inhibit binding of SAP to meningococci is expressed as the percentage by which SAP binding was reduced compared to binding in the absence of any inhibitor (Table 1).
# SAP [5] = target: T1, SAP; experiment: Surface plasmon resonance: calcium dependent binding of SAP to immobilised synthetic Aβ-42 amyloid fibrils
# Excerpt: Surface plasmon resonance (SPR) is a low throughput but powerfully informative method to identify compounds that are bound by, or themselves bind to SAP, either in a calcium dependent fashion or independently of calcium, for the purposes of the present invention. For example, low molecular weight compounds that inhibit binding of SAP to its macromolecular ligands, including target ligands relevant to the present invention, can be detected by their effect on the signal generated by fluid phase SAP binding to ligand immobilised on the solid phase (Example A). Furthermore, when SAP itself is immobilised on the solid phase in an SPR instrument, the interaction with it of test molecules provided in the fluid phase generates a signal that can be detected and quantified. Purified SAP immobilized within an SPR instrument gives a quantifiable signal when it is exposed to another molecule that forms a complex with the SAP, and this is distinct from the absence of such a signal if no complex is formed. […] Another low throughput but powerful direct method is isothermal calorimetry that measures the heat of interaction in solution between SAP and test compounds according to the present invention. The binding affinity can be measured precisely as a guide to potential efficacy. Typical results by this method for the dissociation constants, Kd, between SAP and various compounds are as follows:
# Synthetic Aβ-42 amyloid fibrils (28) were covalently immobilised on the reactant surface of the Fisons IAsys surface plasmon resonance instrument, and then exposed to isolated SAP (32) in solution in Tris-buffered physiological saline in the absence of calcium (shown as TN/N in the Figures). No binding of SAP occurred and thus no signal was generated. Introduction of calcium allowed the SAP to bind specifically to the immobilised amyloid fibrils, generating a readily detectable signal (FIG. 1). […]
# T1 sequence (P02743 20-223): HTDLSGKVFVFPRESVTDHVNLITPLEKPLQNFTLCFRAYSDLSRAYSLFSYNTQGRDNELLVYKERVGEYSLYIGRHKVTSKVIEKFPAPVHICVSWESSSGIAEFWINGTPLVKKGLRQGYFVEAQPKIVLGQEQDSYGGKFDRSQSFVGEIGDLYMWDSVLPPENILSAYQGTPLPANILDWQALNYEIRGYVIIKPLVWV
SMILES,"Inhibition of binding of SAP to chromatin, in words (SAP [1])",inhibition at 0.2 µM (SAP [1]),inhibition at 2 µM (SAP [1]),inhibition at 20 µM (SAP [1]),inhibition at 200 µM (SAP [1]),inhibition at 20 µM (SAP [2]),inhibition at 200 µM (SAP [2]),"Inhibition of binding of SAP to immobilised influenza virus, in words (SAP [2])",inhibition at 20 µM (SAP [4]),inhibition at 2000 µM (SAP [4]),"Inhibition of binding of SAP to meningococci, in words (SAP [4])",Kd (SAP [3]),inhibition at 2000 µM (SAP [1]; compound 2 mM),inhibition at 0.2 µM (SAP [2]),inhibition at 2 µM (SAP [2]),inhibition at 2000 µM (SAP [2]),inhibition at 0.2 µM (SAP [4]),inhibition at 2 µM (SAP [4]),inhibition at 200 µM (SAP [4]),further results
"C[N+](C)(C)CCOP(=O)([O-])O [Phosphocholine, reference compound]",virtually no effect,2%,0%,0%,3%,5%,5%,virtually no effect,4%,24%,virtually no effect,,,,,,,,,inhibition at 2000 µM (SAP [1]): 19%; Kd in micromoles per liter (replicate measurements) (SAP [3]): No binding
CC(=O)N1CCC[C@@H]1C(=O)O [N-acetyl-D-proline],,,,,,,,,,,,16 µM and 23 µM and 17 µM,,,,,,,,
"O=C(O)[C@H]1CCCN1C(=O)COc1ccc(OCC(=O)N2CCC[C@@H]2C(=O)O)cc1 [Ro-64-2856, (R)-1-[[4-[2-[(R)-2-Carboxy-pyrrolidin-1-yl]-2-oxo-ethoxy]-phenoxy]-acetyl]-pyrrolidine-2-carboxylic acid]",,1%,36%,56%,75%,82%,84%,,74%,100%,,0.019 µM and 0.02 µM,91%,3%,77%,87%,0%,65%,65%,
"NCCOP(=O)(O)O [Phosphoethanolamine, reference compound]","inhibition at high concentration, but only modest effects when diluted",3%,9%,36%,59%,42%,51%,"inhibition at high concentration, but only modest effects when diluted",32%,95%,"inhibition at high concentration, but only modest effects when diluted",36 µM and 27 µM and 48 µM,94%,1%,8%,69%,7%,18%,41%,
"O=C(O)[C@H]1CCCN1C(=O)COc1cccc2c(OCC(=O)N3CCC[C@@H]3C(=O)O)cccc12 [Ro-64-5445, (R)-1-[[5-[2-[(R)-2-Carboxy-pyrrolidin-1-yl]-2-oxo-ethoxy]-naphthalen-1-yloxy]-acetyl]-pyrrolidine-2-carboxylic acid]",,12%,51%,74%,82%,64%,76%,,81%,100%,,,96%,23%,,80%,30%,72%,100%,
"O=C(O)CN(CCN(CC(=O)O)CC(=O)O)CC(=O)O [EDTA, reference compound]",All binding was inhibited,,,,,,,All binding was inhibited,,,All binding was inhibited,,,,,,,,,Percent inhibition of binding of radiolabelled SAP to immobilized Neisseria meningitidis (SAP [4]; EDTA 10 mM (printed in the 2 mM column)): 100%
"C[C@H](CS)C(=O)N1CCC[C@@H]1C(=O)O [Ro-15-3479, 1-[(S)-3-Mercapto-2-methylpropionyl]-D-proline]",,,,,,40%,51%,,50%,,,,,12%,30%,,3%,42%,54%,"Effect on SPR signal reflecting ligand binding by SAP (SAP [5]; 50 μmol/l, added after SAP had bound, regenerated surface (FIG. 3)): completely reversed; SPR signal on addition of calcium after SAP and compound (SAP [5]; 100 μmol/l, added before calcium (FIG. 2)): no signal; Effect on binding of SAP to immobilised amyloid fibrils and the corresponding SPR signal (SAP [5]; 500 μmol/l in TC buffer, added after SAP had bound (FIG. 1)): completely reversed the binding of SAP"
